Measured values taken from PubChem BioAssay (NCI).
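Interpolation was linear, between the two tested concentrations surrounding the appropriate level; five concentrations were tested over 48 hours in 96-well plates. The concentration for full growth arrest is given as TGI.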

Experiments:
Assay in all cases: NCI-60 cell line screen, 48 h
MDA-MB-231 breast = tested on: MDA-MB-231 breast
OVCAR-8 ovarian = tested on: OVCAR-8 ovarian
SW-620 colon = tested on: SW-620 colon
HCC-2998 colon = tested on: HCC-2998 colon
HL-60(TB) leukemia = tested on: HL-60(TB) leukemia
HOP-92 NSCLC = tested on: HOP-92 NSCLC
PC-3 prostate = tested on: PC-3 prostate
OVCAR-3 ovarian = tested on: OVCAR-3 ovarian
CAKI-1 renal = tested on: CAKI-1 renal
OVCAR-4 ovarian = tested on: OVCAR-4 ovarian
U251 CNS = tested on: U251 CNS
SF-268 CNS = tested on: SF-268 CNS
SK-MEL-2 melanoma = tested on: SK-MEL-2 melanoma
SNB-75 CNS = tested on: SNB-75 CNS
MOLT-4 leukemia = tested on: MOLT-4 leukemia
NCI-H522 lung = tested on: NCI-H522 lung
SR leukemia = tested on: SR leukemia

Row | SMILES | TGI (MDA-MB-231 breast) [µM] | TGI (OVCAR-8 ovarian) [µM] | TGI (SW-620 colon) [µM] | TGI (HCC-2998 colon) [µM] | TGI (HL-60(TB) leukemia) [µM] | TGI (HOP-92 NSCLC) [µM] | TGI (PC-3 prostate) [µM] | TGI (OVCAR-3 ovarian) [µM] | TGI (CAKI-1 renal) [µM] | TGI (OVCAR-4 ovarian) [µM] | TGI (U251 CNS) [µM] | TGI (SF-268 CNS) [µM] | TGI (SK-MEL-2 melanoma) [µM] | TGI (SNB-75 CNS) [µM] | TGI (MOLT-4 leukemia) [µM] | TGI (NCI-H522 lung) [µM] | TGI (SR leukemia) [µM]
1 | CC(=O)NC1=CC(=O)C=C(Cl)C1=O | > 100 | > 100 | 37 | > 100 | 45.7 | > 100 | > 100 | > 100 | > 100 | 37.7 | > 100 | > 100 | > 100 | > 100 | 50.9 | 84 | 48.3
2 | CC(=O)Nc1ccc2c3c(cc(O)c2c1)N(C(=O)CCCCCC(=O)Nc1ccc2c4c(cc(O)c2c1)N(C(=O)OC(C)(C)C)CC4CCl)CC3CCl (stereo not given) | 18.5 | 15.2 | > 100 | 3.69 | > 36.1 | 23.7 | > 50.2 | 4.54 | > 100 | > 63.6 | 6.75 | 6.87 | 4.02 | 5.22 | > 32.6 | 5.78 | 4.3
3 | Cc1cn(C2CC(O)C(Cn3nncc3Cn3ccc(=O)[nH]c3=O)O2)c(=O)[nH]c1=O (stereo not given) | > 100 | > 100 | > 100 | > 100 | > 100 | > 100 | > 100 | > 100 | > 100 | > 100 | > 100 | > 100 | > 100 | > 100 | > 100 | > 100 | > 100
4 | Cc1cccc2c(=O)c3c(O)cc4c(c3n(C)c12)C=CC(C)(C)O4 | > 100 | > 100 | > 100 | > 100 | > 100 | > 100 | > 100 | > 100 | > 100 | > 100 | > 100 | > 100 | > 100 | > 100 | > 100 | > 100 | 54.6
5 | NC(=O)N=Nc1c2ccccc2n2[nH]ccc12 | > 100 | > 100 | > 100 | > 100 | 58.1 | > 100 | > 100 | > 100 | > 100 | > 100 | > 100 | > 100 | > 100 | > 100 | > 100 | > 100 | > 100
6 | Nc1c(O)c(C(=O)O)cc2ccccc12 | 28.8 | > 100 | 32.3 | > 100 | > 100 | > 100 | > 100 | 94.5 | 53.8 | 48.9 | > 100 | > 100 | 35 | 53.5 | 83.8 | 54.2 | > 100
7 | CC1(C)N=C(N)N=C(N)N1CCCCc1ccccc1 | > 100 | > 100 | > 100 | > 51 | > 31.1 | > 100 | > 77 | > 36.8 | > 100 | > 100 | > 100 | > 100 | > 100 | 97.6 | > 91.6 | 37.4 | > 100
8 | COc1cc(C2SC(N)=Nc3c2c(C)nn3C(=O)c2ccc(Cl)cc2)ccc1O (stereo not given) | > 10 | > 10 | > 10 | > 10 | > 10 | > 10 | > 10 | > 10 | > 10 | > 10 | > 10 | > 10 | > 10 | > 10 | > 10 | > 10 | > 10
9 | CCOC(=O)/C=C1\C[C@H](NC(=O)OCc2ccccc2)C(=O)N1CC(=O)OCC | > 100 | > 100 | > 100 | > 100 | > 100 | > 100 | > 100 | > 100 | > 100 | > 100 | > 100 | > 100 | > 100 | > 100 | > 100 | > 100 | > 100
10 | O=C(N1CCN(c2ccccc2)CC1)N(C(=O)C1(c2ccc(Cl)cc2)CCCC1)S(=O)(=O)c1ccccc1 | 74.5 | 89.4 | > 100 | 58.5 | 68.1 | 74.4 | 76.1 | 82.6 | 71.4 | 64.2 | 62.4 | > 100 | 38.9 | > 100 | 59.1 | 36.6 | > 100
11 | N#C/C=C\c1ccc(-c2cc(C(F)(F)F)cc(C(F)(F)F)c2)o1 | > 100 | 58.5 | > 100 | > 100 | 41.4 | 50 | > 100 | > 100 | > 100 | > 100 | 27.4 | 69.7 | 41 | 39.8 | > 100 | > 100 | 40.7
12 | COc1cc2c3c4c1OCc1c5c(cc(c1-4)CC3[N+](C)(C)CC2)OCO5 (stereo not given) | > 100 | > 100 | > 100 | > 100 | > 100 | > 100 | > 100 | > 100 | > 100 | > 100 | > 64.1 | 16.9 | > 100 | > 100 | > 100 | 98 | > 100
13 | Cc1cc(C)nc(NS(=O)(=O)c2ccc(NC(=O)c3ccc4nc5ccccc5c(Nc5ccc(S(=O)(=O)Nc6nc(C)cc(C)n6)cc5)c4c3)cc2)n1 | 53.9 | > 100 | > 100 | > 100 | 79.1 | > 100 | > 100 | > 100 | > 100 | > 100 | > 100 | > 100 | > 100 | > 100 | 78.1 | 53.5 | > 100
14 | C/C(CC(O)(C(F)(F)F)C(F)(F)F)=N/Nc1ccc([N+](=O)[O-])cc1[N+](=O)[O-] | 6.58 | > 10 | > 10 | > 10 | 7.94 | 4.7 | > 10 | 8.33 | > 10 | > 10 | > 10 | > 10 | 6.11 | > 10 | > 10 | > 10 | > 10
15 | COc1cc(C2S/C(=C/c3ccccc3)C(=O)N2c2ccccn2)cc(OC)c1OC (stereo not given) | > 84.8 | 31.2 | 64.3 | 32.8 | > 100 | 33.6 | > 81.7 | 44.4 | 52.3 | 63.2 | 28.1 | 36.2 | > 71.3 | 39.7 | > 100 | 24.6 | > 100
16 | Cc1cccc(/C=C2\CCCCCC2=O)c1 | > 100 | – | > 100 | > 100 | > 100 | > 100 | > 100 | > 100 | > 100 | > 100 | > 100 | > 100 | > 100 | > 100 | > 100 | > 100 | > 100
17 | O=C(CC(C(=O)c1cccs1)c1ccccc1)c1ccccc1O (stereo not given) | > 30 | > 100 | > 100 | > 100 | > 44 | > 38.9 | > 100 | > 100 | > 67.3 | > 64.2 | > 30.2 | > 35.1 | > 100 | > 55.7 | > 38.4 | 10.4 | > 52.5
18 | N#Cc1c(Nc2ccccc2)[n+]([O-])c2ccc(Cl)cc2[n+]1[O-] | > 67 | 10.7 | > 100 | 15.2 | 12.1 | 4.22 | > 100 | 9.76 | > 100 | 4.17 | 15.6 | > 48.6 | > 72 | > 96.6 | > 100 | 6.49 | > 27.7
